According to US20260167673A1, “NOVEL POLYPEPTIDE, POLYPEPTIDE DERIVATIVE AND USE THEREOF” (NANJING ANJI BIOTECHNOLOGY CO., LTD., priority 2023, published 2026):
Where two headings read alike, the source gives them in different places. Marks after values point to notes of the source that are not given here. Where no end group is shown, it is not given here.

Legend:
Type in all cases: cell-based
[1] = tested on: human tongue squamous cell carcinoma CAL27 cells; settings: CAL27, 80 μM, 48 h
Experimental: After incubation was continued for 48 h, add 100 μL of CCK8 solution to each well of the 96-well plate.

[2] = tested on: human brain astrocytoma cells U87MG; experiment: CCK8 proliferation inhibition, U87MG; settings: 50 μM, 48 h
Experimental: (§1) Incubation was continued for 4 h in a cell incubator, an absorbance was measured at 450 nm, and a proliferation inhibition was calculated. Data was presented as mean±SD, and GraphPad Prism 5.0 statistical software was used. A t-test was used for comparison between two groups, while One-way Anova (Dunnett) was used for comparison among a plurality of groups.

[3] = tested on: human tongue squamous cell carcinoma cells CAL27; experiment: CCK8 proliferation inhibition, CAL27 (Example 5); settings: CAL27, 50 μM, 48 h
Experimental: as §1

[4] = tested on: human esophageal cancer cells TE-13; experiment: CCK8 proliferation inhibition, TE-13; settings: TE-13, 50 μM, 48 h
Experimental: as §1

[5] = tested on: human giant cell lung cancer cells 95-D; experiment: CCK8 proliferation inhibition, 95-D; settings: 50 μM, 48 h
Experimental: as §1

[6] = tested on: human lung squamous cell carcinoma cells SK-MES-1; experiment: CCK8 proliferation inhibition, SK-MES-1; settings: SK-MES-1, 50 μM, 48 h
Experimental: as §1

[7] = tested on: human lung adenocarcinoma cells SPC-A1; experiment: CCK8 proliferation inhibition, SPC-A1; settings: SPC-A1, 50 μM, 48 h
Experimental: as §1

[8] = tested on: human kidney cancer cells Ketr-3; experiment: CCK8 proliferation inhibition, Ketr-3; settings: Ketr-3, 50 μM, 48 h
Experimental: as §1

[9] = tested on: human cervical cancer epithelial cells CaSki; experiment: CCK8 proliferation inhibition, CaSki; settings: 50 μM, 48 h
Experimental: as §1

[10] = tested on: human uterine epidermal cancer cells MS751; experiment: CCK8 proliferation inhibition, MS751; settings: MS751, 50 μM, 48 h
Experimental: as §1

[11] = tested on: human gastric cancer cells MGC-803; experiment: CCK8 proliferation inhibition, MGC-803; settings: MGC-803, 50 μM, 48 h
Experimental: as §1

[12] = tested on: human gastric cancer cells BGC-823; experiment: CCK8 proliferation inhibition, BGC-823; settings: BGC-823, 50 μM, 48 h
Experimental: as §1

[13] = tested on: human bladder transitional cell carcinoma cells T24; experiment: CCK8 proliferation inhibition, T24; settings: T24, 50 μM, 48 h
Experimental: as §1

[14] = tested on: human pancreatic cancer cells ASPC-1; experiment: CCK8 proliferation inhibition, ASPC-1; settings: ASPC-1, 50 μM, 48 h
Experimental: as §1

[15] = tested on: human pancreatic cancer cells PANC-1; experiment: CCK8 proliferation inhibition, PANC-1; settings: PANC-1, 50 μM, 48 h
Experimental: as §1

[16] = tested on: human prostate cancer cells PC-3; experiment: CCK8 proliferation inhibition, PC-3; settings: PC-3, 50 μM, 48 h
Experimental: as §1

[17] = tested on: human cholangiocarcinoma cells QBC939; experiment: CCK8 proliferation inhibition, QBC939; settings: QBC939, 50 μM, 48 h
Experimental: as §1

[18] = tested on: human fibrosarcoma cells HT-1080; experiment: CCK8 proliferation inhibition, HT-1080; settings: HT-1080, 50 μM, 48 h
Experimental: as §1

[19] = tested on: human promyelocytic leukemia cells HL60; experiment: CCK8 proliferation inhibition, HL60; settings: HL60, 50 μM, 48 h
Experimental: as §1

[20] = tested on: human T lymphoblastic leukemia cells Jurkat, Clone E6-1; experiment: CCK8 proliferation inhibition, Jurkat, Clone E6-1; settings: Clone E6-1, 50 μM, 48 h
Experimental: as §1

[21] = tested on: human liver cancer Hep3B cells; experiment: Transwell metastasis inhibition, Hep3B; settings: 50 μmol/L, 48 h
Experimental: Melanoma, cervical cancer, ovarian cancer, liver cancer, and lung cancer cells were seeded into transwell chambers, with 100 μL per well. Different doses of the HMMW micropeptide and the novel polypeptide HMMW15-51 were added to each chamber as a treatment group, while no drug was added to a blank group. Then, 0.6 mL of a complete culture medium containing 10% FBS was added to the lower chambers of the transwell to stimulate cell metastasis, and the cells were cultured at 5% CO2 and 37° C. for 48 h. The culture solution was discarded from the wells. The cells were fixed with methanol at room temperature for 30 min, stained with 0.1% crystal violet at room temperature for 10 min, and rinsed with clean water. The upper layer nonmetastatic cells were wiped off with a cotton swab. The cells were observed under a microscope, and four fields of view were selected to take photos and count the cells. A metastasis inhibition (MI) was calculated according to a formula: […]
where Ntest represents the number of cell metastases in the treatment group, and Ncontrol represents the number of cell metastases in the blank control group.
Data was presented as mean±SD, and GraphPad Prism 5.0 statistical software was used.

MERAGVPGFSPRRSSVEAKMQSTSCSVRKSSTVTAWPAVVLLLSWGQRRGG [HMMW]
OD ([1]; Table 1, deletion mutants): 0.260 ± 0.098
OD ([1]; Table 2, truncated fragments): 0.351 ± 0.078
Inhibition (%) [2]: 62.176 ± 2.001 %
OD [2]: 0.365 ± 0.019
Inhibition (%) [3]: 67.115 ± 5.457 %
OD [3]: 0.383 ± 0.064
Inhibition (%) [4]: 53.060 ± 1.911 %
OD [4]: 0.389 ± 0.016
Inhibition (%) [5]: 59.757 ± 5.365 %
OD [5]: 0.442 ± 0.059
Inhibition (%) [6]: 54.910 ± 4.426 %
OD [6]: 0.435 ± 0.043
Inhibition (%) [7]: 49.128 ± 3.053 %
OD [7]: 0.525 ± 0.032
Inhibition (%) [8]: 48.708 ± 4.852 %
OD [8]: 0.476 ± 0.045
Inhibition (%) [9]: 53.329 ± 3.884 %
OD [9]: 0.458 ± 0.038
Inhibition (%) [10]: 49.268 ± 2.531 %
OD [10]: 0.474 ± 0.024
Inhibition (%) [11]: 41.094 ± 3.077 %
OD [11]: 0.675 ± 0.035
Inhibition (%) [12]: 47.730 ± 4.739 %
OD [12]: 0.510 ± 0.046
Inhibition (%) [13]: 51.562 ± 4.780 %
OD [13]: 0.460 ± 0.045
Inhibition (%) [14]: 51.448 ± 4.377 %
OD [14]: 0.497 ± 0.045
Inhibition (%) [15]: 50.273 ± 6.135 %
OD [15]: 0.424 ± 0.052
Inhibition (%) [16]: 50.341 ± 3.864 %
OD [16]: 0.509 ± 0.040
Inhibition (%) [17]: 49.490 ± 2.138 %
OD [17]: 0.429 ± 0.018
Inhibition (%) [18]: 53.092 ± 4.138 %
OD [18]: 0.432 ± 0.038
Inhibition (%) [19]: 47.264 ± 5.692 %
OD [19]: 0.578 ± 0.062
Inhibition (%) [20]: 44.307 ± 3.404 %
OD [20]: 0.602 ± 0.037
Inhibition (%) ([21]; Hep3B metastasis): 88.13*** %
Number of cell metastases ([21]; Hep3B): 70 ± 75.82
